According to US20220235064A1 (WELLMARKER BIO CO., LTD., priority 2019, published 2022):

Tests used:
[1] = tested on: cancer cell line KM12C, in which RON is activated; assay: Cell growth inhibitory ability in RON-activated cancer cell line (MTS); type: cell-based; settings: Homo sapiens, 48 hours, absorbance 490 nm
Experimental: Experimental Example 2: Identification of Cell Growth Inhibitory Ability of Example Compounds in RON-Activated Cancer Cell Line
The cancer cell line KM12C (80015, KCLB, MEM+1K° FBS), in which RON is activated, was treated with each of the example compounds at a concentration of 10 μM, and then reaction was allowed to proceed for 48 hours. 24 hours after completion of the reaction, 20 μl of MTS solution (CellTiter 96 Aqueous One Solution Cell Proliferation Assay, product number: G3581, Promega) was added to each well, and then incubation was performed at a temperature of 37° C. in 50 CO2 incubator for 4 hours. Then, an IC50 value of the compound was derived by measuring its absorbance value at a wavelength of 490 nm using a Victor X5 plate reader. Here, as a positive control, N-(4-(2-amino-3-chloropyridin-4-yloxy)-3-fluorophenyl)-4-ethoxy-1-(4-fluorophenyl)-2-oxo-1,2-dihydropyridine-3-carboxamide, which is the compound of Example 1 in WO 2008/058229 A1, was used.

RON tyrosine kinase = target: T1, RON tyrosine kinase (Homo sapiens, UniProt Q04912); assay: Enzyme inhibitory activity against RON tyrosine kinase (TR-FRET); type: biochemical; settings: RON (Carna Bioscience)
T1 construct: purchased Carna Bioscience
Experimental: Experimental Example 1: Measurement of Enzyme Inhibitory Activity Against RON Tyrosine Kinase
To measure enzyme inhibitory activity of the example compounds against RON, IC50 values of the compounds were measured using fluorescence resonance energy transfer (FRET).
Specifically, first, RON (Carna Bioscience) was diluted in a kinase assay buffer (50 mM HEPES pH 7.5, 1 mM EGTA, 10 mM MgCl2, 2 mM DTT, and 0.01% Tween-20) to be at a concentration (0.4 nM) that is twice the final reaction concentration. The dilute was added to a 384-well-plate at 5 μl per well. Each of the example compounds was prepared at a concentration of 1 mM in 100% DMSO and diluted 8 times in a stepwise manner through 10-fold dilution. Each compound was diluted in a kinase assay buffer to be at a concentration that is 4 times the final reaction concentration. The dilute was added to a 384-well-plate at 2.5 μl per well, and incubation was performed at room temperature for 15 minutes.
Thereafter, an ATP solution (Sigma Aldrich) prepared at a concentration of 0.25 M was diluted in a kinase assay buffer to be at a concentration (60 μM) that is 4 times the final reaction concentration. Dilution of a tyrosine peptide substrate (Perkin-Elmer) was performed therein to be at a concentration (400 nM) that is 4 times the final reaction concentration. The dilute was added to a 384-well-plate at 2.5 µl per well. Reaction was allowed to proceed for 60 minutes by incubating the 384-well-plate at room temperature. Thereafter, EDTA (Sigma Aldrich) was diluted in a TR-FRET detection buffer (Perkin-Elmer) to be at a concentration (20 mM) that is twice the final reaction concentration. Dilution of a Europium-containing phosphotyrosine antibody (Perkin-Elmer) was performed in the diluted EDTA solution to be at a concentration (4 nM) that is twice the final reaction concentration, so that a stop solution for RON reaction was prepared.
The stop solution was added to the 384-well-plate at 10 μl per well to quench the reaction, and incubation was performed at room temperature for 60 minutes. Then, the 384-well-plate was read on a Victor X5 (Perkin-Elmer) plate reader. Here, the excitation wavelength was 340 nm, and the emission wavelengths were 620 nm and 665 nm. An IC50 value of the compound was derived using GraphPad Prism 5 program, in which the IC50 was derived by expressing emission energy at the wavelength of 665 nm as a function of the compound concentration.

[2] = tested on: cancer cell line KM12C, in which RON is activated; assay: Cell-killing efficacy in RON-activated cancer cell line (trypan blue); type: cell-based; settings: Homo sapiens, 48 hours, trypan blue, n=2, read-out: Cell death (%) Cancer cell line KM12C
Experimental: Experimental Example 3: Measurement of Cell-Killing Efficacy of Example Compounds in RON-Activated Cancer Cell Line
The cancer cell line KM12C (80015, KCLB, MEM+10% FBS), in which RON is activated, was dispensed into each 60 mm^2 dish at 1×10^5 cells. After 24 hours, the dish was treated with each of the example compounds at a concentration of 1 μM or 5 μM while performing medium exchange, and then reaction was allowed to proceed for 48 hours. After 48 hours, centrifugation was performed for 4 minutes at 1,500 rpm to collect cells and cell fluid. Thereafter, living cells and dead cells were quantified (n=2) using a trypan blue solution (15250-061, Gibco), and statistical analysis was performed using Excel-T-test. Here, as a negative control, only a solvent (0.100 DMSO) was used; and as a positive control, N-(4-(2-amino-3-chloropyridin-4-yloxy)-3-fluorophenyl)-4-ethoxy-1-(4-fluorophenyl)-2-oxo-1,2-dihydropyridine-3-carboxamide, which is the compound of Example 1 in WO 2008/058229 A1, was used.

T1 sequence (Q04912 25-1400): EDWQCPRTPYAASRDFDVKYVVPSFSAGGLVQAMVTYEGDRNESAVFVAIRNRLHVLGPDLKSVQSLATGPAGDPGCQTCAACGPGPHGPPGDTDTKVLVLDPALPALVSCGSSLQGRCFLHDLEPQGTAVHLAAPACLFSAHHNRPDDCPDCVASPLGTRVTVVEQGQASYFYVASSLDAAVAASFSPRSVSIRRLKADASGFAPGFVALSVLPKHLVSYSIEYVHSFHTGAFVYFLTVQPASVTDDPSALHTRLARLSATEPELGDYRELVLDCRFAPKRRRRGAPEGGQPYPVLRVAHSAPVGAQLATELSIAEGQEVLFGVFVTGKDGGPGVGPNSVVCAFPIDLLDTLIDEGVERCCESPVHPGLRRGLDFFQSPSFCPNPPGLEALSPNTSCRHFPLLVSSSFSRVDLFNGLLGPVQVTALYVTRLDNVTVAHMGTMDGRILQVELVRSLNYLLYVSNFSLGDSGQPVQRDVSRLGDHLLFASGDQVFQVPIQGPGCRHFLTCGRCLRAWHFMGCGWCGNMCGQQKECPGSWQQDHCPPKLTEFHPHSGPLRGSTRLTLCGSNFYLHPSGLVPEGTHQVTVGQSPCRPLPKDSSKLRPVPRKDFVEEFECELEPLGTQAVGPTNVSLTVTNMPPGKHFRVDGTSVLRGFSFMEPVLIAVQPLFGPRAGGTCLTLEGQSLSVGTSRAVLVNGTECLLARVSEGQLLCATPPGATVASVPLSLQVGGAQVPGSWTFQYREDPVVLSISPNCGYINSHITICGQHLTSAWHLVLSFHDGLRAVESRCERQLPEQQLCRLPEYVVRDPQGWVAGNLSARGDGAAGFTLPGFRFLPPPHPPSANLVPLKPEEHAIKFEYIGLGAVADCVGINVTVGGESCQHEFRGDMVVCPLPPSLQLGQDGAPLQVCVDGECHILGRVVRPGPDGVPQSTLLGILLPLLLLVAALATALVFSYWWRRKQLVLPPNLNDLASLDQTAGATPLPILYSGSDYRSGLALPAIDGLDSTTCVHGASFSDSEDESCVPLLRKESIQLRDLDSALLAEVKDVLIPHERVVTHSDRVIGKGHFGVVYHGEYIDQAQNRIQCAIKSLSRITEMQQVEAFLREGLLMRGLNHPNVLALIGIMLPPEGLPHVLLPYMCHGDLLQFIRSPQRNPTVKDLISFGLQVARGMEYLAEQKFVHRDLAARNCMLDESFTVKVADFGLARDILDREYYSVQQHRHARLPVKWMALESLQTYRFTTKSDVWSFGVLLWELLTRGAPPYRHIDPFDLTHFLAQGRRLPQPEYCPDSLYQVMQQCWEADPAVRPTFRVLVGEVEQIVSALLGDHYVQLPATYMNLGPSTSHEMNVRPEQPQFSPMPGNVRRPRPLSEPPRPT

| SMILES | IC50 [1] [nM] | IC50 (RON tyrosine kinase) [nM] | cytotoxicity at 1 µM [2] [%] | cytotoxicity at 5 µM [2] [%] |
| --- | --- | --- | --- | --- |
| O=C(Nc1ccc(Oc2ccnc3cc(-c4ccccn4)sc23)c(F)c1)c1c2c(cn(-c3ccccc3)c1=O)CCO2 [Example 4] | 8 | 0.35 |  |  |
| Cn1cnc(-c2cc3nccc(Oc4ccc(NC(=O)c5c6c(cn(-c7ccccc7)c5=O)CCO6)cc4F)c3s2)c1 [Example 9, N-(3-Fluoro-4-((2-(1-methyl-1H-imidazol-4-yl)thieno[3,2-b]pyridin-7-yl)oxy)phenyl)-6-oxo-5-phenyl-2,3,5,6-tetrahydrofuro[3,2-c]pyridine-7-carboxamide] | 0.6 | 0.5 |  |  |
| CCNC(=O)c1cc2c(Oc3ccc(NC(=O)c4c5c(cn(-c6ccc(F)cc6)c4=O)CCO5)cc3F)ccnc2cc1OC [Example 51, N-(4-((6-(Ethylcarbamoyl)-7-methoxyquinolin-4-yl)oxy)-3-fluorophenyl)-5-(4-fluorophenyl)-6-oxo-2,3,5,6-tetrahydrofuro[3,2-c]pyridine-7-carboxamide] | 2 | 0.55 |  |  |
| COc1cc2nccc(Oc3ccc(NC(=O)c4c5c(cn(-c6ccc(F)cc6)c4=O)CCO5)cc3F)c2cc1NC(=O)CN1CCOCC1 [Example 53, N-(3-Fluoro-4-((7-methoxy-6-(2-morpholinoacetamido)quinolin-4-yl)oxy)phenyl)-5-(4-fluorophenyl)-6-oxo-2,3,5,6-tetrahydrofuro[3,2-c]pyridine-7-carboxamide] | 3 | 1.03 |  |  |
| O=C(Nc1ccc(Oc2ccnc(NCCCN3CCOCC3)c2Cl)c(F)c1)c1c2c(cn(-c3ccc(F)cc3)c1=O)CCO2 [Example 62, N-(4-((3-Chloro-2-((3-morpholinopropyl)amino)pyridin-4-yl)oxy)-3-fluorophenyl)-5-(4-fluorophenyl)-6-oxo-2,3,5,6-tetrahydrofuro[3,2-c]pyridine-7-carboxamide] | 1670 | 12.3 |  |  |
| CN1CCC(Nc2cc(Oc3ccc(NC(=O)c4c5c(cn(-c6ccc(F)cc6)c4=O)CCO5)cc3F)ccn2)CC1 [Example 63, N-(3-Fluoro-4-((2-((1-methylpiperidin-4-yl)amino)pyridin-4-yl)oxy)phenyl)-5-(4-fluorophenyl)-6-oxo-2,3,5,6-tetrahydrofuro[3,2-c]pyridine-7-carboxamide] | 2280 | 20.6 |  |  |
| O=C(Nc1ccc(Oc2ncnc3[nH]ccc23)c(F)c1)c1c2c(cn(-c3ccc(F)cc3)c1=O)CCO2 [Example 71, N-(4-((7H-pyrrolo[2,3-d]pyrimidin-4-yl)oxy)-3-fluorophenyl)-5-(4-fluorophenyl)-6-oxo-2,3,5,6-tetrahydrofuro[3,2-c]pyridine-7-carboxamide] | 11 | 8.24 |  |  |

Second part, led by results:

| IC50 [1] [nM] | IC50 (RON tyrosine kinase) [nM] | SMILES | cytotoxicity at 1 µM [2] [%] | cytotoxicity at 5 µM [2] [%] |
| --- | --- | --- | --- | --- |
| 8 | 17.5 | O=C(Nc1ccc(Oc2ncnc3[nH]ncc23)c(F)c1)c1c2c(cn(-c3ccc(F)cc3)c1=O)CCO2 [Example 73, N-(4-((1H-pyrazolo[3,4-d]pyrimidin-4-yl)oxy)-3-fluorophenyl)-5-(4-fluorophenyl)-6-oxo-2,3,5,6-tetrahydrofuro[3,2-c]pyridine-7-carboxamide] |  |  |
| 10 | 9.32 | COc1cc2c(Oc3ccc(NC(=O)c4c5c(cn(-c6ccc(F)cc6)c4=O)CCC5)cc3F)ccnc2cc1OCCCN1CCOCC1 [Example 77, N-(3-Fluoro-4-((6-methoxy-7-(3-morpholinopropoxy)quinolin-4-yl)oxy)phenyl)-2-(4-fluorophenyl)-3-oxo-3,5,6,7-tetrahydro-2H-cyclopenta[c]pyridine-4-carboxamide] |  |  |
| 1 | 0.78 | COc1cc2c(Oc3ccc(NC(=O)c4c5c(cn(-c6ccccc6)c4=O)CCO5)cc3F)ccnc2cc1OCCN1CCOCC1 [Example 79, N-(3-Fluoro-4-((6-methoxy-7-(2-morpholinoethoxy)quinolin-4-yl)oxy)phenyl)-6-oxo-5-phenyl-2,3,5,6-tetrahydrofuro[3,2-c]pyridine-7-carboxamide] |  |  |
| 5 |  | COc1cc2c(Oc3ccc(NC(=O)c4c5c(cn(-c6ccc(F)cc6)c4=O)CCO5)cc3F)ccnc2cc1OCCCN1CCC(F)(F)C1 [Example 95, N-(4-((7-(3-(3,3-Difluoropyrrolidin-1-yl)propoxy)-6-methoxyquinolin-4-yl)oxy)-3-fluorophenyl)-5-(4-fluorophenyl)-6-oxo-2,3,5,6-tetrahydrofuro[3,2-c]pyridine-7-carboxamide] | 19.6 | 25.6 |
| 1 |  | COc1cc2c(Oc3ccc(NC(=O)c4c5c(cn(-c6ccc(F)cc6)c4=O)CCO5)cc3F)ccnc2cc1OCCCN1CCS(=O)(=O)CC1 [Example 102, N-(4-((7-(3-(1,1-Dioxidothiomorpholino)propoxy)-6-methoxyquinolin-4-yl)oxy)-3-fluorophenyl)-5-(4-fluorophenyl)-6-oxo-2,3,5,6-tetrahydrofuro[3,2-c]pyridine-7-carboxamide] | 23.4 | 29.7 |
| 2 |  | COc1cc2c(Oc3ccc(NC(=O)c4c5c(cn(-c6ccc(F)cc6)c4=O)CCO5)cc3F)ccnc2cc1OCCN1CCC(C)(O)CC1 [Example 137, N-(3-Fluoro-4-((7-(2-(4-hydroxy-4-methylpiperidin-1-yl)ethoxy)-6-methoxyquinoline-4-yl)oxy)phenyl)-5-(4-fluorophenyl)-6-oxo-2,3,5,6-tetrahydrofuro[3,2-c]pyridine-7-carboxamide] | 18.2 | 22.4 |
| 2 | 0.1 | CNC(=O)c1cc2c(Oc3ccc(NC(=O)c4c5c(cn(-c6ccc(F)cc6)c4=O)CCO5)cc3F)ccnc2cc1OCCN1CCOCC1 [Example 163, N-(3-Fluoro-4-((6-(methylcarbamoyl)-7-(2-morpholinoethoxy)quinolin-4-yl)oxy)phenyl)-5-(4-fluorophenyl)-6-oxo-2,3,5,6-tetrahydrofuro[3,2-c]pyridine-7-carboxamide] |  |  |
| 6 | 0.83 | O=C(Nc1ccc(Oc2ccnc3cc(OCCN4CCOCC4)c(F)cc23)c(F)c1)c1c2c(cn(-c3ccc(F)cc3)c1=O)CCO2 [Example 167, N-(3-Fluoro-4-((6-fluoro-7-(2-morpholinoethoxy)quinolin-4-yl)oxy)phenyl)-5-(4-fluorophenyl)-6-oxo-2,3,5,6-tetrahydrofuro[3,2-c]pyridine-7-carboxamide] |  |  |
| 25 | 0.45 | O=C(Nc1ccc(Oc2ccnc3cc(OCCCN4CCOCC4)c(F)cc23)c(F)c1)c1c2c(cn(-c3ccc(F)cc3)c1=O)CCO2 [Example 168, N-(3-Fluoro-4-((6-fluoro-7-(3-morpholinopropoxy)quinolin-4-yl)oxy)phenyl)-5-(4-fluorophenyl)-6-oxo-2,3,5,6-tetrahydrofuro[3,2-c]pyridine-7-carboxamide] |  |  |
